Results published in ChEMBL document CHEMBL5325401, “Computer-aided identification, synthesis, and biological evaluation of DNA polymerase η inhibitors for the treatment of cancer” (Eur J Med Chem, 2023).
≈ marks a conversion by molar mass, not a printed value. Calls of active or inactive are those of the source. No cut-off for these calls is given here.

How the values were obtained:
[1] = tested on: A-375; assay: Antiproliferative activity against human A-375 cells incubated for 48 hrs by MTT assay; format: functional; conditions: read-out: LD50 (the source's name)
[2] = Metabolic stability in mouse plasma assessed as half life at 2 uM incubated upto 120 mins by UPLC/MS analysis; format: ADME, cell-free
[3] = Upregulation of phosphorylated gamma-H2AX level in human A375 cells assessed as fold increase in activity at 20 uM incubated for 24 hrs by in presence of cisplatin by immunofluorescence based microscopy relative to cisplatin; format: functional, A-375
[4] = Antiproliferative activity against HEK293 cells incubated for 72 hrs by MTT assay; format: toxicity, cell-based; conditions: human, read-out: LD50
[5] = target: T1, DNA polymerase eta (Homo sapiens, UniProt Q9Y253); assay: Inhibition of C-terminal 6xHis-tagged human DNA polymerase eta (1 to 511 residues) expressed in Escherichia coli BL21 DE3 using 5'-IRD700-GCAGGTCGACTCCAAAG-3' primer/ 5'-TCGGTACCGGGTTAGCCTTTGGAGTCGACCTGC-3' template as DNA substrate incubated for 60 mins in presence of Mg2+ by bromophenol blue staining based assay
T1 sequence (Q9Y253 whole entry): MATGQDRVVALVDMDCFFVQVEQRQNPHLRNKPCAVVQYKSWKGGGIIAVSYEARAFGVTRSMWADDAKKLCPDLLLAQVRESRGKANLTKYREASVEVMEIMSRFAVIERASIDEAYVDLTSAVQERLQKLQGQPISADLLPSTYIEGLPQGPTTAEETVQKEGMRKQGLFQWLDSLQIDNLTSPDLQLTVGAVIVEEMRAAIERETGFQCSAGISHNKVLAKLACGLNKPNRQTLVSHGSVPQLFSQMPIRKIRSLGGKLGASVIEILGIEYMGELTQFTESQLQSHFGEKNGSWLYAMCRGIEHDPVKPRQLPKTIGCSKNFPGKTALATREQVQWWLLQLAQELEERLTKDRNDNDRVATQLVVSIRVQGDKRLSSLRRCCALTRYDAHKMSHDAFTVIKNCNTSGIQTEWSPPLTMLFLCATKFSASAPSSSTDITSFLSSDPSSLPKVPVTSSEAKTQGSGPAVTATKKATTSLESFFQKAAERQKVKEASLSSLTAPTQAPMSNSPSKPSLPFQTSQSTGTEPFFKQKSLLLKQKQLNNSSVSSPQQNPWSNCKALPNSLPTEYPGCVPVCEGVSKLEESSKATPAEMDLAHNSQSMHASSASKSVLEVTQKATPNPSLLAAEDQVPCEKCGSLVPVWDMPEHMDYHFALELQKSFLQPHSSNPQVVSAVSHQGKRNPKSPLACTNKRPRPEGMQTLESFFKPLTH

[6] = tested on: A549; assay: Additive antiproliferative activity against human A549 cells assessed as combination index at 30 uM incubated for 48 hrs in presence of 6 uM cisplatin by MTT assay; format: functional
[7] = tested on: A-375; assay: Synergistic antiproliferative activity against human A-375 cells assessed as combination index at 50 uM incubated for 48 hrs in presence of 12.5 uM cisplatin by MTT assay; format: functional
[8] = Kinetic solubility of compound in neutral buffer at pH 7.4 at 250 uM measured after 24 hrs by UPLC/MS analysis; format: physicochemical; conditions: read-out: Kinetic_solubility
[9] = tested on: HEK293; assay: (§1) Antiproliferative activity against HEK293 cells incubated for 48 hrs by MTT assay; format: toxicity, cell-based; conditions: human, hek293, 48 h
[10] = tested on: A-375; assay: Additive antiproliferative activity against human A-375 cells assessed as combination index at 10 uM incubated for 48 hrs in presence of 6 uM cisplatin by MTT assay; format: functional
[11] = Metabolic stability in mouse liver microsome assessed as half life at 4.6 uM incubated upto 60 mins by LC/MS-MS analysis; format: ADME; conditions: liver microsomes
[12] = tested on: A-375; assay: Antiproliferative activity against human A-375 cells assessed as cisplatin LD50 at 10 uM incubated for 48 hrs in presence of cisplatin by MTT assay; format: functional; conditions: read-out: LD50 (the source's name)
[13] = tested on: OVCAR-3; assay: Antiproliferative activity against human OVCAR-3 cells incubated for 48 hrs by MTT assay; format: functional; conditions: read-out: LD50 (the source's name)
[14] = tested on: A-375; assay: Antiproliferative activity against human A-375 cells assessed as cisplatin LD50 at 20 uM incubated for 48 hrs in presence of cisplatin by MTT assay; format: functional; conditions: read-out: LD50 (the source's name)
[15] = Upregulation of phosphorylated gamma-H2AX level in human OVCAR-3 cells assessed as fold increase in activity at 20 uM incubated for 24 hrs by in presence of cisplatin by immunofluorescence based microscopy relative to cisplatin; format: functional
[16] = tested on: A549; assay: Antiproliferative activity against human A549 cells assessed as cisplatin LD50 at 30 uM incubated for 48 hrs in presence of cisplatin by MTT assay; format: functional; conditions: read-out: LD50 (the source's name)
[17] = tested on: OVCAR-3; assay: Antagonistic antiproliferative activity against human OVCAR-3 cells assessed as combination index at 10 uM incubated for 48 hrs in presence of 12.5 uM cisplatin by MTT assay; format: functional
[18] = tested on: A549; assay: Antiproliferative activity against human A549 cells incubated for 48 hrs by MTT assay; format: functional; conditions: read-out: LD50 (the source's name)
[19] = tested on: A549; assay: Antagonistic antiproliferative activity against human A549 cells assessed as combination index at 20 uM incubated for 48 hrs in presence of 12.5 uM cisplatin by MTT assay; format: functional
[20] = tested on: OVCAR-3; assay: Antiproliferative activity against human OVCAR-3 cells assessed as cisplatin LD50 at 10 uM incubated for 48 hrs in presence of cisplatin by MTT assay; format: functional; conditions: read-out: LD50 (the source's name)
[21] = tested on: A549; assay: Antiproliferative activity against human A549 cells assessed as cisplatin LD50 at 20 uM incubated for 48 hrs in presence of cisplatin by MTT assay; format: functional; conditions: read-out: LD50 (the source's name)
[22] = tested on: A-375; assay: Antiproliferative activity against human A-375 cells assessed as cisplatin LD50 at 30 uM incubated for 48 hrs in presence of cisplatin by MTT assay; format: functional; conditions: read-out: LD50 (the source's name)
[23] = tested on: OVCAR-3; assay: Additive antiproliferative activity against human OVCAR-3 cells assessed as combination index at 10 uM incubated for 48 hrs in presence of 6 uM cisplatin by MTT assay; format: functional
[24] = tested on: OVCAR-3; assay: Antiproliferative activity against human OVCAR-3 cells assessed as cisplatin LD50 at 5 uM incubated for 48 hrs in presence of cisplatin by MTT assay; format: functional; conditions: read-out: LD50 (the source's name)
[25] = tested on: A549; assay: Additive antiproliferative activity against human A549 cells assessed as combination index at 30 uM incubated for 48 hrs in presence of 12.5 uM cisplatin by MTT assay; format: functional
[26] = tested on: A549; assay: Additive antiproliferative activity against human A549 cells assessed as combination index at 20 uM incubated for 48 hrs in presence of 6 uM cisplatin by MTT assay; format: functional
[27] = tested on: A549; assay: Antiproliferative activity against human A549 cells assessed as cisplatin LD50 at 100 uM incubated for 48 hrs in presence of cisplatin by MTT assay; format: functional; conditions: read-out: LD50 (the source's name)
[28] = tested on: OVCAR-3; assay: Antiproliferative activity against human OVCAR-3 cells assessed as cisplatin LD50 at 50 uM incubated for 48 hrs in presence of cisplatin by MTT assay; format: functional; conditions: read-out: LD50 (the source's name)
[29] = tested on: A549; assay: Synergistic antiproliferative activity against human A549 cells assessed as combination index at 100 uM incubated for 48 hrs in presence of 12.5 uM cisplatin by MTT assay; format: functional
[30] = tested on: A549; assay: Synergistic antiproliferative activity against human A549 cells assessed as combination index at 50 uM incubated for 48 hrs in presence of 6 uM cisplatin by MTT assay; format: functional
[31] = tested on: A549; assay: Synergistic antiproliferative activity against human A549 cells assessed as combination index at 100 uM incubated for 48 hrs in presence of 6 uM cisplatin by MTT assay; format: functional
[32] = as §1; format: toxicity, cell-based; conditions: human, HEK293 cells, read-out: LD50
[33] = tested on: OVCAR-3; assay: Synergistic antiproliferative activity against human OVCAR-3 cells assessed as combination index at 50 uM incubated for 48 hrs in presence of 6 uM cisplatin by MTT assay; format: functional
[34] = tested on: OVCAR-3; assay: Antiproliferative activity against human OVCAR-3 cells assessed as cisplatin LD50 at 75 uM incubated for 48 hrs in presence of cisplatin by MTT assay; format: functional; conditions: read-out: LD50 (the source's name)
[35] = tested on: A-375; assay: Upregulation of phosphorylated gamma-H2AX level in human A375 cells at 30 uM incubated for 48 hrs by in presence of cisplatin by Western blot analysis; format: functional, cell-based
[36] = tested on: A549; assay: Antiproliferative activity against human A549 cells assessed as cisplatin LD50 at 50 uM incubated for 48 hrs in presence of cisplatin by MTT assay; format: functional; conditions: read-out: LD50 (the source's name)
[37] = tested on: A-375; assay: Antiproliferative activity against human A-375 cells assessed as cisplatin LD50 at 35 uM incubated for 48 hrs in presence of cisplatin by MTT assay; format: functional; conditions: read-out: LD50 (the source's name)
[38] = tested on: A-375; assay: Synergistic antiproliferative activity against human A-375 cells assessed as combination index at 50 uM incubated for 48 hrs in presence of 6 uM cisplatin by MTT assay; format: functional
[39] = tested on: OVCAR-3; assay: Synergistic antiproliferative activity against human OVCAR-3 cells assessed as combination index at 75 uM incubated for 48 hrs in presence of 6 uM cisplatin by MTT assay; format: functional
[40] = tested on: OVCAR-3; assay: Upregulation of phosphorylated gamma-H2AX level in human OVCAR-3 cells incubated for 48 hrs by Western blot analysis; format: functional, cell-based; conditions: dose 30.0 µM
[41] = tested on: A-375; assay: Upregulation of phosphorylated gamma-H2AX level in human A375 cells incubated for 48 hrs by Western blot analysis; format: functional, cell-based; conditions: dose 30.0 µM
[42] = tested on: A-375; assay: Synergistic antiproliferative activity against human A-375 cells assessed as combination index at 35 uM incubated for 48 hrs in presence of 12.5 uM cisplatin by MTT assay; format: functional
[43] = tested on: OVCAR-3; assay: Synergistic antiproliferative activity against human OVCAR-3 cells assessed as combination index at 50 uM incubated for 48 hrs in presence of 12.5 uM cisplatin by MTT assay; format: functional
[44] = tested on: A-375; assay: Synergistic antiproliferative activity against human A-375 cells assessed as combination index at 35 uM incubated for 48 hrs in presence of 6 uM cisplatin by MTT assay; format: functional
[45] = tested on: A-375; assay: Antiproliferative activity against human A-375 cells assessed as cisplatin LD50 at 50 uM incubated for 48 hrs in presence of cisplatin by MTT assay; format: functional; conditions: read-out: LD50 (the source's name)
[46] = tested on: A549; assay: Synergistic antiproliferative activity against human A549 cells assessed as combination index at 50 uM incubated for 48 hrs in presence of 12.5 uM cisplatin by MTT assay; format: functional
[47] = tested on: OVCAR-3; assay: Synergistic antiproliferative activity against human OVCAR-3 cells assessed as combination index at 75 uM incubated for 48 hrs in presence of 12.5 uM cisplatin by MTT assay; format: functional

## COc1c(-c2ccc(O)c(O)c2)oc2cc(O)cc(O)c2c1=O [3-O-METHYLQUERCETIN]
[1]
  CC50: 29 µM
[2]
  half-life at 2 µM: > 2 h
[3]
  fold change (FC): >2
[4]
  CC50 at 72 h: 30.5 µM
[5]
  IC50: 10.8 µM
[6]
  CI: 0.96
[7]
  CI: 0.78
[8]
  solubility kinetic at 24 h, 250 µM: 229 µM (≈ 72.4 µg/mL)
[9]
  Activity: Non-Toxic
[10]
  CI: 0.96
[11]
  half-life at 4.6 µM: > 1 h
[12]
  CC50: 2 µM
[13]
  CC50: 5.2 µM
[14]
  CC50: 0.5 µM
[15]
  fold change (FC): >2
[16]
  CC50: 7.4 µM
[17]
  CI: 2.33
[18]
  CC50: 60 µM
[19]
  CI: 1.24
[20]
  CC50: 5.8 µM
[21]
  CC50: 11.9 µM
[22]
  CC50: 0.4 µM
[23]
  CI: 1.15
[24]
  CC50: 4.8 µM
[25]
  CI: 0.94
[26]
  CI: 1.03

## O=c1c(OCCCO)c(-c2ccc(O)c(O)c2)oc2cc(O)cc(O)c12
[27]
  CC50: 9.4 µM
[1]
  CC50: > 100 µM
[28]
  CC50: 2.8 µM
[2]
  half-life at 2 µM: 1.5 h
[3]
  fold change (FC): >2
[5]
  IC50: 14.7 µM
[29]
  CI: 0.58
[30]
  CI: 0.78
[31]
  CI: 0.6
[7]
  CI: 0.23
[8]
  solubility kinetic at 24 h, 250 µM: 231 µM (≈ 83.2 µg/mL)
[32]
  CC50 at 48 h: > 100 µM
[33]
  CI: 0.52
[34]
  CC50: 0.27 µM
[35]
  Activity: Active
[36]
  CC50: 19.7 µM
[11]
  half-life at 4.6 µM: > 1 h
[37]
  CC50: 2.6 µM
[13]
  CC50: > 100 µM
[38]
  CI: 0.27
[39]
  CI: 0.5
[15]
  fold change (FC): >2
[40]
  Activity: Dose-Dependent Effect
[41]
  Activity: Dose-Dependent Effect
[18]
  CC50: > 100 µM
[20]
  CC50: 4.8 µM
[42]
  CI: 0.78
[43]
  CI: 0.78
[44]
  CI: 0.66
[45]
  CC50: 1 µM
[46]
  CI: 0.8
[47]
  CI: 0.72
